Experimental data from the supplement of paper PMC10307832.

Tests used:
Assay in all cases: relative viability (nuclei count vs DMSO), 5 days (fraction); higher = more cells survive
[1] = compound: N=C1NC(=O)/C(=C/c2ccc(O)cc2)S1 [Mirin] + Cc1cc(Nc2cc(N3CCN(C)CC3)nc(Sc3ccc(NC(=O)C4CC4)cc3)n2)n[nH]1 [Tozasertib] (partner 0.1 µM)
Outline: (§1)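 Relative viability is defined as nuclei in treated wells over nuclei in vehicle wells. Duplicate plates were run and medians reported. Lung cancer cell lines in 1536-well plates were dosed by pin tool one day after seeding, with one drug or with a fixed anchor-drug dose plus five library-drug doses (not always all listed) in √10 steps, and nuclei were counted after 5 days.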

[2] = compound: N=C1NC(=O)/C(=C/c2ccc(O)cc2)S1 [Mirin] + C[C@]1(O)C[C@@H](c2nc(-c3ccc4ccc(-c5ccccc5)nc4c3)c3c(N)nccn32)C1 [Linsitinib] (partner 1 µM)
Outline: as §1

[3] = compound: CCC1=CN=CN=C1N2CCN(CC2)CC3=NC4=C(N3)C=C(C=C4)C(F)(F)F + C[C@@H](Oc1cc(-c2cnn(C3CCNCC3)c2)cnc1N)c1c(Cl)ccc(F)c1Cl [Crizotinib] (partner 1 µM)
Outline: as §1

[4] = compound: CCn1c(-c2nonc2N)nc2cnc(Oc3cccc(NC(=O)c4ccc(OCCN5CCOCC5)cc4)c3)cc21 + CS(=O)(=O)CCNCc1ccc(-c2ccc3ncnc(Nc4ccc(OCc5cccc(F)c5)c(Cl)c4)c3c2)o1 [Lapatinib] (partner 2 µM)
Outline: as §1

Row | Cell Line | relative viability ([1]; first compound 0.25 µM) | relative viability ([1]; first compound 0.7906 µM) | relative viability ([1]; first compound 2.5 µM) | relative viability ([1]; first compound 7.906 µM) | relative viability ([1]; first compound 25 µM) | relative viability ([2]; first compound 0.25 µM) | relative viability ([2]; first compound 0.7906 µM) | relative viability ([2]; first compound 2.5 µM) | relative viability ([2]; first compound 7.906 µM) | relative viability ([2]; first compound 25 µM) | relative viability ([3]; first compound 0.04 µM) | relative viability ([3]; first compound 0.1265 µM) | relative viability ([3]; first compound 0.4 µM) | relative viability ([3]; first compound 1.265 µM) | relative viability ([3]; first compound 4 µM) | relative viability ([4]; first compound 0.04 µM) | relative viability ([4]; first compound 0.1265 µM) | relative viability ([4]; first compound 0.4 µM) | relative viability ([4]; first compound 1.265 µM) | relative viability ([4]; first compound 4 µM)
1 | NCI-H441 | 0.719 | 0.762 | 0.634 | 0.551 | 0.26 | 0.503 | 0.493 | 0.599 | 0.45 | 0.48 | 0.742 | 0.627 | 0.789 | 0.859 | 1.04 | – | – | – | – | –
2 | NCI-H522 | 0.491 | 0.538 | 0.582 | 0.517 | 0.472 | – | – | – | – | – | – | – | – | – | – | – | – | – | – | –
3 | NCI-H1299 | – | – | – | – | – | 0.984 | 0.966 | 0.978 | 0.879 | 1.2 | 0.935 | 0.953 | 0.953 | 0.96 | 0.981 | 0.951 | 0.86 | 0.836 | 0.724 | 0.625
4 | NCI-H1395 | 0.703 | 0.857 | 0.66 | 0.772 | 0.72 | 1.13 | – | 1.07 | 1.05 | 0.901 | – | – | – | – | – | 1.22 | 0.92 | 0.632 | 0.418 | 0.57
5 | NCI-H1563 | – | – | – | – | – | 1.16 | 1.32 | 1.19 | 1.18 | 1.19 | 0.822 | 0.847 | 0.928 | 0.962 | 1.09 | 1.01 | 0.822 | 0.804 | 0.782 | 0.673
6 | NCI-H1623 | 0.448 | 0.429 | 0.423 | 0.436 | 0.377 | – | – | – | – | – | – | – | – | – | – | – | – | – | – | –
7 | NCI-H1648 | 0.444 | 0.608 | 0.506 | 0.466 | 0.251 | – | – | – | – | – | – | – | – | – | – | – | – | – | – | –
8 | NCI-H1650 | 0.379 | 0.483 | 0.421 | 0.325 | 0.277 | – | – | – | – | – | 0.942 | 0.853 | 1.03 | 1.06 | 1.42 | 1.04 | 0.747 | 0.74 | 0.671 | 0.694
9 | NCI-H1703 | – | – | – | – | – | 0.797 | 0.353 | 0.967 | – | 0.916 | 1.07 | 0.697 | 0.775 | 0.858 | 1.23 | 1.2 | 0.939 | 0.715 | 0.376 | 0.361
10 | NCI-H1792 | – | – | – | – | – | 0.597 | 0.592 | 0.617 | 0.505 | 0.589 | 0.881 | 0.875 | 0.94 | 0.958 | 1.01 | 1 | 0.869 | – | 0.567 | 0.793
11 | NCI-H1793 | 0.341 | – | 0.619 | 0.283 | 0.178 | 0.816 | 0.794 | 0.902 | 0.947 | 0.641 | – | – | – | – | – | 0.555 | 0.569 | 0.582 | 0.414 | 0.418
12 | NCI-H2170 | 0.709 | 0.747 | 0.713 | 0.652 | 0.504 | – | – | – | – | – | 1.12 | 1.18 | 1.2 | 1.27 | 1.49 | 0.261 | 0.278 | 0.274 | 0.258 | 0.27
13 | NCI-H2342 | 0.474 | 0.636 | 0.625 | 0.49 | 0.459 | – | – | – | – | – | – | – | – | – | – | – | – | – | – | –
14 | SW 900 | 0.652 | 0.698 | 0.571 | 0.689 | 0.473 | – | – | – | – | – | – | – | – | – | – | – | – | – | – | –
